Data reported in US9550774B2, “Dihydropyrido pyrimidine compounds as autotaxin inhibitors” (Eli Lilly and Company, priority 2013, dated 2017).

Columns and labels:
endogenous autotaxin = endogenous autotaxin (Homo sapiens (Human), UniProt Q13822); assay: Autotaxin Mediated Inhibition of LPA in the Presence of Human Plasma; type: biochemical; details: 90% pooled human plasma, 3 hours at 37° C., total LPA by mass spec
Description: The following assay is intended to measure autoaxin mediated inhibition of LPA. This assay is a tool that can be used to identify autotaxin-mediated LPA inhibitor compounds when it is used to test compounds that have been identified as autotaxin inhibitors. LPA biosynthesis through autotaxin is believed to the source of LPA for LPA1 mediated neuropathic pain. Makoto Inoue, et. al, “Autotaxin, a synthetic enzyme of lysophosphatidic acid (LPA), mediates the induction of nerve-injured neuropathic pain”, Molecular Pain, 2008, 4:6. Inhibition of the autotaxin mediated LPA biosynthesis is supported by the results of this assay.
Units of plasma from healthy human female donors collected in sodium heparin (Lampire Biologicals) are pooled, aliquoted and stored at −80° C. […] A 400 μl aliquot of extraction buffer (50% methanol, 49.9% acetonitrile, 0.1% acetic acid) containing LPA internal standards (50 ng/ml D5 deuterium LPA 16:0 and 50 ng/ml D5 deuterium LPA 18:0) is added to each well and the total LPA in each sample is determined by mass spec analysis. Percent inhibition of LPA is calculated according to the following formula: 100−(3 hour plasma+test compound−0 hour plasma no test compound control)/(3 hour plasma no test compound control−0 hour plasma no test compound control)×100
[formula] IC50 values are calculated using 4 parameter curve fitting. […]

[1] = target: recombinant human autotaxin (Homo sapiens (Human), UniProt Q13822); assay: Inhibition of Autotaxin as Measured by Choline Release; type: biochemical; details: LPC 16:0 30 μM substrate, 37° C. for 1 hour, 4 parameter curve fit
Description: The purpose of this assay is to detect autotaxin inhibition using a choline release assay.
Test compound (10 mM stocks in 100% DMSO) is serially diluted in 100% DMSO resulting in 10 concentrations of 100× inhibitor in half area 96 well plates (Corning 3992). Each of these 10 wells in 100% DMSO is diluted 1:33.33 in assay buffer in round bottom 96 well plates (Fisher 12565502) resulting in 3× concentrations in well containing 3% DMSO. The assay buffer is 50 mM Tris pH8.0, 5 mM KCl, 1 mM CaCl2, 1 mM MgCl2, 0.01% TRITON™ X-100 (Sigma T9284) and 0.01% fatty acid free bovine serum albumin (Sigma A8806). A 20 μl aliquot of each 3× test compound is then added to black flat bottom 96 well plates (Corning 3991) in singlicate. A 20 μl aliquot per well of 3× recombinant human autotaxin, (Echelon, E-4000) (full length human autotaxin with a C-terminal His tag transfected into 293E cells and purified via nickel chelate and size exclusion chromatography) is then added to every well except for the no enzyme control wells. A 20 μl aliquot per well of assay buffer is added to the no enzyme control wells. […] The resorufin on the plates is measured with a SpectraMax Gemini EM fluorometer at excitation-emission wavelengths of 530-590 nm using SoftMax Pro 4.8 software. IC50s are calculated using 4 parameter curve fits. […]

SMILES	IC50 (endogenous autotaxin)	IC50 [1]
O=C(c1cc(-c2cnn[nH]2)ccn1)N1CCc2nc(NC3Cc4ccccc4C3)ncc2C1 [Example 9, [2-(indan-2-ylamino)-7,8-dihydro-5H-pyrido[4,3-d]pyrimidin-6-yl]-[4-(1H-triazol-5-yl)-2-pyridyl]methanone]	7 nM	< 1.7 nM
O=C(c1cnn(Cc2c[nH]nn2)c1)N1CCc2nc(NC3Cc4ccccc4C3)ncc2C1 [Example 1, [2-(indan-2-ylamino)-7,8-dihydro-5H-pyrido[4,3-d]pyrimidin-6-yl]-[1-(1H-triazol-4-ylmethyl)pyrazol-4-yl]methanone]	5.4 nM	< 1.7 nM
